For this assay, the system named is Mycobacterium tuberculosis. The assay is described as follows: In vitro minimum inhibitory concentration measured against Mycobacterium tuberculosis H37Rv strain. The assay is classed as functional.
For `c1ccc(CNCCNCc2ccccc2)cc1`, the MIC – broadly, the lowest concentration found to suppress growth – is over 64 µg/mL. For “(1S)-2-({[4-({[(5R)-5-hydroxycyclopenta-1,3-dien-1-yl]methyl}amino)butyl]amino}methyl)cyclopenta-2,4-dien-1-ol bis(cyclopenta-1,3-diene) diiron”, the MIC was over 64 µg/mL. The same measure for “(1S)-2-({[6-({[(5R)-5-hydroxycyclopenta-1,3-dien-1-yl]methyl}amino)hexyl]amino}methyl)cyclopenta-2,4-dien-1-ol bis(cyclopenta-1,3-diene) diiron”: over 64 µg/mL. “(cyclopenta-1,3-dien-1-ylmethyl)(hexyl)amine (cyclopenta-1,3-dien-1-ylmethyl)(methyl)amine bis(cyclopenta-1,3-diene) diiron”: the MIC was 32 µg/mL. “(cyclopenta-1,3-dien-1-ylmethyl)({2-[(cyclopenta-1,3-dien-1-ylmethyl)amino]ethyl})amine bis(cyclopenta-1,3-diene) diiron”: inhibition of growth (MIC) required 8 µg/mL. The same measure for “(cyclopenta-1,3-dien-1-ylmethyl)({3-[(cyclopenta-1,3-dien-1-ylmethyl)amino]propyl})amine bis(cyclopenta-1,3-diene) diiron”: 8 µg/mL; for “(cyclopenta-1,3-dien-1-ylmethyl)({4-[(cyclopenta-1,3-dien-1-ylmethyl)amino]butyl})amine bis(cyclopenta-1,3-diene) diiron”: 32 µg/mL.

(Values after ChEMBL document CHEMBL1144381, “Synthesis and antimycobacterial activity of ferrocenyl ethambutol analogues and ferrocenyl diamines” (2005).)
